# Patent publication US20240217936A1, “5-BENZY[…] AND PREPARATION METHOD THEREFOR AND USE THEREOF” (WEST CHINA HOSPITAL, SICHUAN UNIVERSITY, priority 2021, published 2024)
# Structures can show the parent of a compound that is named as a salt.
# Assays:
# Male SD rats [1] = assay: Hypnotic effect after tail vein injection (loss of righting reflex); type: in vivo, rat; conditions: for ED50: Rattus norvegicus, 50% of the dose for the disappearance of righting reflex in rats, tail vein injection; for Onset time: tail vein injection of 2× ED50, loss of righting reflex; for Onset time / Duration: rats; for Duration: tail vein injection of 2× ED50, until recovery of righting reflex
# Experimental: Male SD rats, weighing 250-300 g, were randomly divided into groups, with 10 rats in each group. […] The onset times and the duration of hypnosis were recorded.
# Male SD rats [2] = assay: Blood pressure change after tail vein injection (mean arterial pressure); conditions: dosage 2× ED50, injection within 15 seconds, 60 min recording, rats under isoflurane
# Experimental: Male SD rats weighing 250-300 g were randomly divided into groups, with 10 rats in each group. General anesthesia was maintained by inhaling isoflurane. By intubating via femoral artery, blood pressure was monitored using the BL-420N biological signal collection and analysis system. minutes after blood pressure stabilization, the baseline mean arterial pressure (MAP0) was measured. Subsequently, the physiological saline solution of each test drug was injected via the tail vein (the dosage of each drug was the same as that in Experiment example 2, with a unified injection […] volume of 1 mL). […] All prodrug molecules were injected within 15 seconds. After injection of each drug, the change in blood pressure was continuously recorded for 60 min. […] The difference MAPΔ+ between the baseline mean arterial pressure (MAP0) and the highest mean arterial pressure (MAPmax) during the 60 min measurement time was calculated; the difference MAPΔ− between the baseline mean arterial pressure (MAP0) and the lowest mean arterial pressure (MAPmin) during the 60 min measurement time was also obtained; both of the difference values were used to calculate the maximum increase rate of mean arterial pressure +Δ%=MAPΔ+/MAP0*100% and the maximum decrease rate of mean arterial pressure −Δ%=MAPΔ−/MAP0*100%, respectively. The maximum increase rate of mean arterial pressure +Δ% and the maximum decrease rate −Δ% reflect the degree of blood pressure change that the body experienced after administration. The larger the value, the greater the blood pressure change that the body experienced.
# [3] = Degradation of prodrug in rat plasma (release of dexmedetomidine, HPLC); type: in vitro ADME; conditions: 37° C.
# Experimental: The test prodrug was formulated as a 1 mg/mL of physiological saline solution, and then 100 μL of the prodrug solution was added to 900 μL of rat plasma. The test solution was vortexed for 30 s before incubation at 37° C. 50 μL of drug-containing plasma was collected at 0.5 min, 1 min, 2 min, 3 min, 5 min, 10 min, 15 min, 20 min, 30 min, and 60 min, respectively, to which was immediately added 150 μL of acetonitrile to terminate the enzymatic reaction, followed by adding the solution of internal standard telmisartan in methanol (30 μL, 20 μg/mL). Then, the resultant solution was centrifuged at 20000 rpm and 4° C. for 10 min. 100 μL of the supernatant was injected for detection by HPLC, and the concentration of dexmedetomidine was determined by an internal standard method. The degradation rate of the prodrug was calculated based on the concentration of dexmedetomidine. The chromatographic conditions are: Swell XDB C18 column (150 mm×4.6 mm, 5 μm); column temperature 30° C.; using gradient elution (see Table 1), mobile phase A: methanol, mobile phase B: 0.1% trifluoroacetic acid in water, and mobile phase C: acetonitrile; detection wavelength: 220 nm; flow rate: 1.0 mL/min; injection volume: 30 μL; retention time: 4.7 minutes for dexmedetomidine and 6.7 minutes for internal standard telmisartan. The linear range of dexmedetomidine: 2.5-100 μg/mL. Instruments: Waters 2695 high-performance liquid chromatograph, Waters 2996 photodiode array detector.
smiles,measurement,setting,value
CCCOC(=O)n1cnc([C@@H](C)c2cccc(C)c2C)c1 [Compound 11-HCl],ED50,Male SD rats [1],0.026 mg/kg
same,Onset time,Male SD rats [1],2.6 ± 0.3 min
same,Duration,Male SD rats [1],47 ± 8 min
same,+Δ % (The maximum increase rate of blood pressure),Male SD rats [2],*25 ± 7%
same,−Δ % (The maximum decrease rate of blood pressure),Male SD rats [2],41 ± 8%
same,Degradation rate of prodrug %,[3]; 0.5 min,26%
same,Degradation rate of prodrug %,[3]; 1 min,57%
same,Degradation rate of prodrug %,[3]; 2 min,74%
same,Degradation rate of prodrug %,[3]; 3 min,75%
same,Degradation rate of prodrug %,[3]; 5 min,82%
same,Degradation rate of prodrug %,[3]; 10 min,88%
same,Degradation rate of prodrug %,[3]; 15 min,95%
same,Degradation rate of prodrug %,[3]; 20 min,100%
COC(=O)OCn1cnc([C@@H](C)c2cccc(C)c2C)c1 [Compound 13-HCl],ED50,Male SD rats [1],0.025 mg/kg
same,Onset time,Male SD rats [1],4.1 ± 1.3 min
same,Duration,Male SD rats [1],36 ± 7 min
same,+Δ % (The maximum increase rate of blood pressure),Male SD rats [2],*16 ± 8%
same,−Δ % (The maximum decrease rate of blood pressure),Male SD rats [2],39 ± 7%
same,Degradation rate of prodrug %,[3]; 0.5 min,16%
same,Degradation rate of prodrug %,[3]; 1 min,44%
same,Degradation rate of prodrug %,[3]; 2 min,67%
same,Degradation rate of prodrug %,[3]; 3 min,79%
same,Degradation rate of prodrug %,[3]; 5 min,90%
same,Degradation rate of prodrug %,[3]; 10 min,96%
same,Degradation rate of prodrug %,[3]; 15 min,100%
Cc1cccc([C@H](C)c2cn(COC(=O)OC3CCC3)cn2)c1C [Compound 14-HCl],ED50,Male SD rats [1],0.031 mg/kg
same,Onset time,Male SD rats [1],3.9 ± 2.1 min
same,Duration,Male SD rats [1],51 ± 7 min
same,+Δ % (The maximum increase rate of blood pressure),Male SD rats [2],31 ± 6%
same,−Δ % (The maximum decrease rate of blood pressure),Male SD rats [2],36 ± 6%
same,Degradation rate of prodrug %,[3]; 0.5 min,53%
same,Degradation rate of prodrug %,[3]; 1 min,80%
same,Degradation rate of prodrug %,[3]; 2 min,85%
same,Degradation rate of prodrug %,[3]; 3 min,98%
same,Degradation rate of prodrug %,[3]; 5 min,100%
Cc1cccc([C@H](C)c2cn(COC(=O)C3CC3)cn2)c1C [Compound 15-HCl],ED50,Male SD rats [1],0.03 mg/kg
same,Onset time,Male SD rats [1],3.5 ± 1.2 min
same,Duration,Male SD rats [1],43 ± 9 min
same,+Δ % (The maximum increase rate of blood pressure),Male SD rats [2],*21 ± 5%
same,−Δ % (The maximum decrease rate of blood pressure),Male SD rats [2],36 ± 6%
same,Degradation rate of prodrug %,[3]; 0.5 min,18%
same,Degradation rate of prodrug %,[3]; 1 min,41%
same,Degradation rate of prodrug %,[3]; 2 min,54%
same,Degradation rate of prodrug %,[3]; 3 min,63%
same,Degradation rate of prodrug %,[3]; 5 min,87%
same,Degradation rate of prodrug %,[3]; 10 min,94%
same,Degradation rate of prodrug %,[3]; 15 min,100%
CC(=O)OC(C)n1cnc([C@@H](C)c2cccc(C)c2C)c1 (stereo partly shown) [Compound 17-HCl],ED50,Male SD rats [1],0.029 mg/kg
same,Onset time,Male SD rats [1],1.8 ± 0.7 min
same,Duration,Male SD rats [1],42 ± 12 min
same,+Δ % (The maximum increase rate of blood pressure),Male SD rats [2],*15 ± 4%
same,−Δ % (The maximum decrease rate of blood pressure),Male SD rats [2],35 ± 6%
same,Degradation rate of prodrug %,[3]; 0.5 min,12%
same,Degradation rate of prodrug %,[3]; 1 min,16%
same,Degradation rate of prodrug %,[3]; 2 min,19%
same,Degradation rate of prodrug %,[3]; 3 min,22%
same,Degradation rate of prodrug %,[3]; 5 min,29%
same,Degradation rate of prodrug %,[3]; 10 min,39%
same,Degradation rate of prodrug %,[3]; 15 min,48%
same,Degradation rate of prodrug %,[3]; 20 min,53%
same,Degradation rate of prodrug %,[3]; 30 min,58%
same,Degradation rate of prodrug %,[3]; 60 min,67%
CCC(=O)OC(C)n1cnc([C@@H](C)c2cccc(C)c2C)c1 (stereo partly shown) [Compound 18-HCl],ED50,Male SD rats [1],0.036 mg/kg
same,Onset time,Male SD rats [1],2.4 ± 0.9 min
same,Duration,Male SD rats [1],41 ± 10 min
same,+Δ % (The maximum increase rate of blood pressure),Male SD rats [2],29 ± 12%
same,−Δ % (The maximum decrease rate of blood pressure),Male SD rats [2],34 ± 8%
same,Degradation rate of prodrug %,[3]; 0.5 min,17%
same,Degradation rate of prodrug %,[3]; 1 min,33%
same,Degradation rate of prodrug %,[3]; 2 min,42%
same,Degradation rate of prodrug %,[3]; 3 min,48%
same,Degradation rate of prodrug %,[3]; 5 min,54%
same,Degradation rate of prodrug %,[3]; 10 min,59%
same,Degradation rate of prodrug %,[3]; 15 min,64%
same,Degradation rate of prodrug %,[3]; 20 min,69%
same,Degradation rate of prodrug %,[3]; 30 min,72%
same,Degradation rate of prodrug %,[3]; 60 min,75%
Cc1cccc([C@H](C)c2cn(COC(=O)OC3CC3)cn2)c1C [Compound 22-HCl],ED50,Male SD rats [1],0.024 mg/kg
same,Onset time,Male SD rats [1],1.5 ± 0.2 min
same,Duration,Male SD rats [1],48 ± 9 min
same,+Δ % (The maximum increase rate of blood pressure),Male SD rats [2],34 ± 7%
same,−Δ % (The maximum decrease rate of blood pressure),Male SD rats [2],39 ± 6%
same,Degradation rate of prodrug %,[3]; 0.5 min,91%
same,Degradation rate of prodrug %,[3]; 1 min,97%
same,Degradation rate of prodrug %,[3]; 2 min,100%
